Measured values: patent publication US20090318290A1, “N-(4-PYRIDIN-2-YLBUTYL) BENZAMIDE DERIVATIVES AND THEIR USE AS FUNGICIDES” (BAYER CROPSCIENCE SA, priority 2006, published 2009)

System: Pyrenophora teres
Experiment: In vivo test on Pyrenophora teres (barley net blotch)
Conditions: dose of 110 ppm; barley plants (Express variety), preventive spray 24 hours before contamination; grading 12 days after contamination
Description: The active ingredients tested are prepared by homogenization in a mixture of acetone/tween/DMSO, then diluted with water to obtain the desired active material concentration.
Barley plants (Express variety), sown on a 50/50 peat soil-pozzolana substrate in starter cups and grown at 12° C., are treated at the 1-leaf stage (10 cm tall) by spraying with the active ingredient prepared as described above. Plants, used as controls, are treated with the mixture of acetone/tween/DMSO/water not containing the active material.
After 24 hours, the plants are contaminated by spraying them with an aqueous suspension of Pyrenophora teres spores (12,000 spores per ml). The spores are collected from a 12-day-old culture. The contaminated barley plants are incubated for 24 hours at about 20° C. and at 100% relative humidity, and then for 12 days at 80% relative humidity.
Grading is carried out 12 days after the contamination, in comparison with the control plants.

SMILES: O=C(NCCCCc1ncc(C(F)(F)F)cc1Cl)c1ccccc1C(F)(F)F [Compound 1]
- efficacy (grading in comparison with the control plants): at least 60%
